Laboratory results published in BindingDB's records for doi:10.1016/s0960-894x(01)00004-x (Seoul National University, 2001).

Target: Prostaglandin G/H synthase 1 (Oryctolagus cuniculus)
Assay: Inhibitory activity against Prostaglandin G/H synthase 1 from rabbit renal microsomes

Compound | IC50
C=C[C@@]1(C)CC=C2C(CCC3[C@](C)(CCC/C=C/C(=O)O)CCC[C@@]23C)C1 (stereo partly drawn) [(E)-6-((1R,4aR,7S)-1,4a,7-Trimethyl-7-vinyl-1,2,3,4,4a,6,7,8,8a,9,10,10a-dodecahydro-phenanthren-1-yl)-hex-2-enoic acid] | 32.7 µM
CC[C@@]1(C)CC=C2C(CCC3[C@](C)(C(=O)O)CCC[C@@]23C)C1 (stereo partly drawn) [(1R,4aR,7S)-7-Ethyl-1,4a,7-trimethyl-1,2,3,4,4a,6,7,8,8a,9,10,10a-dodecahydro-phenanthrene-1-carboxylic acid] | 229 µM
C=C[C@@]1(C)CC=C2C(CCC3[C@](C)(C(=O)NO)CCC[C@@]23C)C1 (stereo partly drawn) [(1R,4aR,7S)-1,4a,7-Trimethyl-7-vinyl-1,2,3,4,4a,6,7,8,8a,9,10,10a-dodecahydro-phenanthrene-1-carboxylic acid hydroxyamide] | 45.6 µM
C=C[C@@]1(C)CC=C2C(CCC3[C@](C)(CC(=O)O)CCC[C@@]23C)C1 (stereo partly drawn) [((1S,4aR,7S)-1,4a,7-Trimethyl-7-vinyl-1,2,3,4,4a,6,7,8,8a,9,10,10a-dodecahydro-phenanthren-1-yl)-acetic acid] | 28.1 µM
C=C[C@@]1(C)CC=C2C(CCC3[C@](C)(CO)CCC[C@@]23C)C1 (some centres not stated) [acanthol] | 791 µM
C[C@]1(CCF)CC=C2C(CCC3[C@](C)(C(=O)F)CCC[C@@]23C)C1 (stereo partly drawn) [(1R,4aR,7S)-7-(2-Fluoro-ethyl)-1,4a,7-trimethyl-1,2,3,4,4a,6,7,8,8a,9,10,10a-dodecahydro-phenanthrene-1-carbonyl fluoride] | 18.4 µM
C=C[C@@]1(C)CC=C2C(CCC3[C@](C)(C(=O)OC)CCC[C@@]23C)C1 (stereo partly drawn) [(1R,4aR,7S)-1,4a,7-Trimethyl-7-vinyl-1,2,3,4,4a,6,7,8,8a,9,10,10a-dodecahydro-phenanthrene-1-carboxylic acid methyl ester] | > 1000 µM
